SMILES strings stand for the structures. Values after ≈ are worked out from the molar mass of the structure shown.

One assay has as its system Mycobacterium tuberculosis H37Rv strains. Put plainly: In vitro assay for antimicrobial susceptibility (microplate Alamar blue MIC). The class given is cell-based. As to conditions: Mycobacterium tuberculosis, H37RV, 7H9, Alamar blue, inhibition ≧90%; read-out: MIC (μg/mL) against H37Rv. A general note: Alamar Blue is a resazurin reagent that responds to reducing activity.
For `Clc1ccc(-n2c3c/c(=N\C4CCCCC4)c(Nc4cncnc4)cc-3nc3ccccc32)cc1` [TBI-961, 5-(4-Chlorophenyl)-3-cyclohexylimino-2-(pyrimidin-5-yl)amino-3,5-dihydrophenazine], the MIC was 0.015 µg/mL (≈ 0.0312 µM).

For `COC1CCC(/N=c2\cc3n(-c4ccc(F)cc4)c4ccccc4nc-3cc2Nc2cnccn2)CC1` (centres unmarked) [TBI-1079, 5-(4-Fluorophenyl)-3-(4-methoxycyclohexyl)imino-2-(pyrazin-2-yl)amino-3,5-dihydrophenazine], the MIC stood at 0.037 µg/mL (≈ 0.0748 µM). As for `CC(C)/N=c1\cc2n(-c3ccc(F)c(F)c3)c3ccccc3nc-2cc1Nc1ncccc1C#N` [TBI-1438, 5-(3,4-Difluorophenyl)-3-(1-methylethyl)imino-2-(3-cyano-2-pyridyl)amino-3,5-dihydrophenazine], the MIC came to 0.053 µg/mL (≈ 0.114 µM). On to `CC(C)/N=c1\cc2n(-c3ccc(OC(F)(F)F)cc3)c3ccccc3nc-2cc1Nc1ncccc1[N+](=O)[O-]` [TBI-954, 5-(4-Trifluoromethoxyphenyl)-3-(1-methylethyl)imino-2-(3-nitro-2-pyridyl)amino-3,5-dihydrophenazine], for which the MIC is 0.03 µg/mL (≈ 0.0561 µM).

The assay is the same for the next values; noted with them: Mycobacterium tuberculosis, H37RV, in vitro, Mycobacterium tuberculosis H37Rv strains; read-out: MIC (μg/mL) against H37Rv.
Take `CO[C@H]1CC[C@H](/N=c2\cc3n(-c4ccc(Cl)cc4)c4ccccc4nc-3cc2Nc2cncc(Br)c2)CC1` [TBI-881, 5-(4-Chlorophenyl)-3-(1′,4′-trans-4-methoxycyclohexyl)imino-2-(5-bromo-3-pyridyl)amino-3,5-dihydrophenazine]: the MIC worked out at 0.052 µg/mL (≈ 0.0883 µM). With `COc1ncccc1Nc1cc2nc3ccc(F)cc3n(-c3ccc(Cl)c(Cl)c3)c-2c/c1=N\C1CCOCC1` [TBI-884, 7-Fluoro-5-(3,4-dichlorophenyl)-3-(4-tetrahydropyranyl)imino-2-(2-methoxy-3-pyridyl)amino-3,5-dihydrophenazine], the MIC was 0.5 µg/mL (≈ 0.886 µM). `Cc1ccc(Nc2cc3nc4ccccc4n(-c4ccc(Br)cc4)c-3c/c2=N\C2CCOCC2)cn1` [TBI-504, 5-(4-Bromophenyl)-3-(4-tetrahydropyranyl)imino-2-(6-methyl-3-pyridyl)amino-3,5-dihydrophenazine]: the MIC is 0.044 µg/mL (≈ 0.0814 µM). As to `Fc1ccc(-n2c3c/c(=N\C4CCOCC4)c(Nc4cccnc4)cc-3nc3ccccc32)cc1F` [TBI-1432, 5-(3,4-Difluorophenyl)-3-(4-tetrahydropyranyl)imino-2-(3-pyridyl)amino-3,5-dihydrophenazine], the MIC came to 0.088 µg/mL (≈ 0.182 µM). Regarding `COc1ncccc1Nc1cc2nc3ccccc3n(-c3ccc(OC(F)(F)F)cc3)c-2c/c1=N\C1CCCCC1` [TBI-365, 5-(4-Trifluoromethoxyphenyl)-3-cyclohexylimino-2-(2-methoxy-3-pyridyl)amino-3,5-dihydrophenazine], the MIC was determined as 0.018 µg/mL (≈ 0.0322 µM). The same measure, in the same setting: with `COc1ncccc1Nc1cc2nc3ccccc3n(-c3ccc(F)cc3)c-2c/c1=N\C1CCC1` [TBI-1016, 5-(4-Fluorophenyl)-3-cyclobutylimino-2-(2-methoxy-3-pyridyl)amino-3,5-dihydrophenazine] the figure was 0.037 µg/mL (≈ 0.0795 µM); with `COC1CCC(/N=c2\cc3n(-c4ccc(Br)cc4)c4ccccc4nc-3cc2Nc2ccc(C)nc2)CC1` (centres unmarked) [TBI-503, 5-(4-Bromophenyl)-3-(4-methoxycyclohexyl)imino-2-(6-methyl-3-pyridyl)amino-3,5-dihydrophenazine], 0.097 µg/mL (≈ 0.171 µM). As for `Fc1ccc(-n2c3c/c(=N\C4CCC4)c(Nc4cccnc4)cc-3nc3ccccc32)cc1F` [TBI-526, 5-(3,4-Difluorophenyl)-3-cyclobutylimino-2-(3-pyridyl)amino-3,5-dihydrophenazine], the MIC was 0.079 µg/mL (≈ 0.174 µM). Still for that read-out and setting: with `Cc1cncc(Nc2cc3nc4ccccc4n(-c4ccccc4)c-3c/c2=N\C2CCOCC2)c1` [TBI-083, 5-Phenyl-3-(4-tetrahydropyranyl)imino-2-(5-methyl-3-pyridyl)amino-3,5-dihydrophenazine] the figure was 0.049 µg/mL (≈ 0.106 µM). As for `COc1ncccc1Nc1cc2nc3cc(F)ccc3n(-c3ccc(Cl)cc3)c-2c/c1=N\C1CC1` [TBI-859, 8-Fluoro-5-(4-chlorophenyl)-3-cyclopropylimino-2-(2-methoxy-3-pyridyl)amino-3,5-dihydrophenazine], the MIC amounted to 0.015 µg/mL (≈ 0.0309 µM).

Take `CC(=O)Nc1ccc(Nc2cc3nc4ccccc4n(-c4ccc(F)cc4)c-3c/c2=N\C2CCN(CC(C)C)CC2)cn1` [TBI-913, 5-(4-Fluorophenyl)-3-(N-isobutyl-4-piperidyl)imino-2-(6-acetamino-3-pyridyl)amino-3,5-dihydrophenazine]: the MIC came out at 0.144 µg/mL (≈ 0.249 µM). In the case of `Cc1ccc(-n2c3c/c(=N\C4CCCCC4)c(Nc4ccc(C)nc4)cc-3nc3ccccc32)cc1` [TBI-306, 5-(4-Methylphenyl)-3-cyclohexylimino-2-(6-methyl-3-pyridyl)amino-3,5-dihydrophenazine], the MIC is 0.106 µg/mL (≈ 0.224 µM). Still for that read-out and setting: with `COC1CCC(/N=c2\cc3n(-c4ccc(Cl)cc4)c4ccccc4nc-3cc2Nc2cccnc2C)CC1` (centres unmarked) [TBI-453, 5-(4-Chlorophenyl)-3-(4-methoxycyclohexyl)imino-2-(2-methyl-3-pyridyl)amino-3,5-dihydrophenazine] the figure was 0.011 µg/mL (≈ 0.021 µM); with `COC1CCC(/N=c2\cc3n(-c4ccc(F)c(F)c4)c4ccccc4nc-3cc2Nc2cccnc2)CC1` (centres unmarked) [TBI-1430, 5-(3,4-Difluorophenyl)-3-(4-methoxycyclohexyl)imino-2-(3-pyridyl)amino-3,5-dihydrophenazine], 0.059 µg/mL (≈ 0.115 µM); with `Clc1cccc(-n2c3c/c(=N\C4CC4)c(Nc4cccnc4)cc-3nc3ccccc32)c1` [TBI-812, 5-(3-Chlorophenyl)-3-cyclopropylimino-2-(3-pyridyl)amino-3,5-dihydrophenazine], 0.013 µg/mL (≈ 0.0297 µM).

As to `COCC(C/N=c1\cc2n(-c3ccc(Cl)cc3)c3ccccc3nc-2cc1Nc1cccnc1OC)OC` (centres unmarked) [TBI-872, 5-(4-Chlorophenyl)-3-(2,3-dimethoxy-1-propyl)imino-2-(2-methoxy-3-pyridyl)amino-3,5-dihydrophenazine], the MIC came to 0.06 µg/mL (≈ 0.113 µM). Still for that read-out and setting: under `Cc1ccc(-n2c3c/c(=N\C4CCN(C)CC4)c(Nc4cccnc4)cc-3nc3ccccc32)cc1` [TBI-304, 5-(4-Methylphenyl)-3-(N-methyl-4-piperidyl)imino-2-(3-pyridinyl)amino-3,5-dihydro-phenazine] stands 0.25 µg/mL (≈ 0.527 µM); under `COc1ncccc1Nc1cc2nc3ccccc3n(-c3ccc(Cl)cc3Cl)c-2c/c1=N\C1CCOCC1` [TBI-947, 5-(2,4-Dichlorophenyl)-3-(4-tetrahydropyranyl)imino-2-(2-methoxy-3-pyridyl)amino-3,5-dihydrophenazine], 0.06 µg/mL (≈ 0.11 µM). Take `Cc1ccc(Nc2cc3nc4ccccc4n(-c4ccc(F)cc4)c-3c/c2=N\CC2CCCN(C)C2)cn1` (centres unmarked) [TBI-902, 5-(4-Fluorophenyl)-3-(N-methyl-3-piperidylmethyl)imino-2-(6-methyl-3-pyridyl)amino-3,5-dihydrophenazine]: the MIC was 0.058 µg/mL (≈ 0.114 µM). As to `Cc1ccc(Nc2cc3nc4ccccc4n(-c4ccc(Br)cc4)c-3c/c2=N\C(C)C)cn1` [TBI-099, 5-(4-Bromophenyl)-3-(1-methylethyl)imino-2-(6-methyl-3-pyridyl)amino-3,5-dihydrophenazine], the MIC was 0.049 µg/mL (≈ 0.0983 µM). On to `CC(C)/N=c1\cc2n(-c3ccccc3Cl)c3ccccc3nc-2cc1Nc1cccnc1` [TBI-890, 5-(2-Chlorophenyl)-3-(1-methylethyl)imino-2-(3-pyridyl)amino-3,5-dihydrophenazine], for which the MIC was 0.476 µg/mL (≈ 1.08 µM). Turning to `COc1ncccc1Nc1cc2nc3ccccc3n(-c3ccccc3)c-2c/c1=N\C1CCCCC1` [TBI-079, 5-Phenyl-3-cyclohexylimino-2-(2-methoxy-3-pyridyl)amino-3,5-dihydrophenazine], the MIC amounted to 0.068 µg/mL (≈ 0.143 µM). Same read-out and setting: under `Cc1ccc(-n2c3c/c(=N\C4CCC4)c(Nc4ccc(C)nc4)cc-3nc3ccccc32)cc1` [TBI-346, 5-(4-Methylphenyl)-3-cyclobutylimino-2-(6-methyl-3-pyridyl)amino-3,5-dihydrophenazine] stands 0.058 µg/mL (≈ 0.13 µM). Same read-out and setting: under `CO[C@H]1CC[C@H](/N=c2\cc3n(-c4ccc(F)cc4)c4ccccc4nc-3cc2Nc2ccc(NC(C)=O)nc2)CC1` [TBI-915, 5-(4-Fluorophenyl)-3-(1′,4′-trans-4-methoxycyclohexyl)imino-2-(6-acetamino-3-pyridyl)amino-3,5-dihydrophenazine] stands 0.211 µg/mL (≈ 0.383 µM). Still for that read-out and setting: with `Cc1ccc(-n2c3c/c(=N\C4CCOCC4)c(Nc4cccnc4)cc-3nc3ccccc32)cc1` [TBI-303, 5-(4-Methylphenyl)-3-(4-tetrahydropyranyl)imino-2-(3-pyridinyl)amino-3,5-dihydrophenazine] the figure was 0.03 µg/mL (≈ 0.065 µM). Consider `Cc1ccc(Nc2cc3nc4ccc(F)cc4n(-c4ccc(OC(F)(F)F)cc4)c-3c/c2=N\C(C)C)cn1` [TBI-854, 7-Fluoro-5-(4-trifluoromethoxyphenyl)-3-(1-methylethyl)imino-2-(6-methyl-3-pyridyl)amino-3,5-dihydrophenazine], for which the MIC came to 0.067 µg/mL (≈ 0.128 µM). As for `COc1ccc(Nc2cc3nc4ccccc4n(-c4ccccc4)c-3c/c2=N\C(C)C)cn1` [TBI-510, 5-Phenyl-3-(1-methylethyl)imino-2-(6-methoxy-3-pyridyl)amino-3,5-dihydrophenazine], the MIC came to 0.5 µg/mL (≈ 1.15 µM). On to `Cc1ccc(-n2c3c/c(=N\C4CCN(C)CC4)c(Nc4cccnc4C)cc-3nc3ccccc32)cc1` [TBI-326, 5-(4-Methylphenyl)-3-(N-methyl-4-piperidyl)imino-2-(2-methyl-3-pyridyl)amino-3,5-dihydrophenazine], for which the MIC came out at 0.1 µg/mL (≈ 0.205 µM). As to `CC(C)/N=c1\cc2n(-c3cccc(C(F)(F)F)c3)c3ccccc3nc-2cc1Nc1cccnc1` [TBI-730, 5-(3-Trifluoromethylphenyl)-3-(1-methylethyl)imino-2-(3-pyridyl)amino-3,5-dihydrophenazine], the MIC worked out at 0.205 µg/mL (≈ 0.433 µM). Same read-out and setting: with `COc1ncccc1Nc1cc2nc3ccccc3n(-c3ccccc3)c-2c/c1=N\C1CCC1` [TBI-505, 5-Phenyl-3-cyclobutylimino-2-(2-methoxy-3-pyridyl)amino-3,5-dihydrophenazine] the figure was 0.043 µg/mL (≈ 0.0961 µM); with `COc1ncccc1Nc1cc2nc3ccccc3n(-c3ccc(C)cc3)c-2c/c1=N\C1CCN(CC(C)C)CC1` [TBI-314, 5-(4-Methylphenyl)-3-(N-isobutyl-4-piperidyl)imino-2-(2-methoxy-3-pyridyl)amino-3,5-dihydrophenazine], 0.024 µg/mL (≈ 0.0439 µM).

Source of the values: patent US8716292B2, “Riminophenazines with 2-(heteroaryl)amino substituents and their anti-microbial activity” (priority 2010, dated 2014).
